One compound from publication PMC7316778 (Nature Communications, 2020) can be followed below.

Several values for one entry are separate records, joined by “and”; a condition that tells them apart may be missing. Identical values can stand only once. Like-named read-outs stand apart in the source and are kept apart here.

Among the targets are CAMKK1 (CAMKKA) (Homo sapiens, UniProt Q8N5S9); GSK3A (GSK3 alpha) (Homo sapiens, UniProt P49840); SRPK1 (Homo sapiens, UniProt Q96SB4); TEK (Tie2) (Homo sapiens, UniProt Q02763); IGF1R (Homo sapiens, UniProt P08069); PDGFRB (PDGFR beta) (Homo sapiens, UniProt P09619).
Holding throughout (assay): SelectScreen kinase assay
Another assay addresses T1, TGFBR1 (ALK5) (Homo sapiens, UniProt P36897).
T1 sequence (P36897 34-503): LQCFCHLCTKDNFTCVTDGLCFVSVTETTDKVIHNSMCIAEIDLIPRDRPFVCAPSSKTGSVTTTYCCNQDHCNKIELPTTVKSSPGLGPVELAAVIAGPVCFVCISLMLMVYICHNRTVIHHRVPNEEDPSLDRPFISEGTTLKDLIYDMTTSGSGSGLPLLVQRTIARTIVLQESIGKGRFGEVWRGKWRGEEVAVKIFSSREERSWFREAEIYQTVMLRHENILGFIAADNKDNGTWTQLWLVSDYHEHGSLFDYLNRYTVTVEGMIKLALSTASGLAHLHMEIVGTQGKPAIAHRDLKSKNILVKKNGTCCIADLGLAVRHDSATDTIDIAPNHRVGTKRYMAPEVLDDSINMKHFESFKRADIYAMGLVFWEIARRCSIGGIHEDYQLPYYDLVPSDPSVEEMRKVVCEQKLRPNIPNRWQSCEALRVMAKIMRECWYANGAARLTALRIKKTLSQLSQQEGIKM
The conditions noted are these: for Inhibition at 1 µM (%): LanthaScreen Binding.

The target of another assay is T2, TYRO3 (RSE) (Homo sapiens, UniProt Q06418).
T2 sequence (Q06418 41-890): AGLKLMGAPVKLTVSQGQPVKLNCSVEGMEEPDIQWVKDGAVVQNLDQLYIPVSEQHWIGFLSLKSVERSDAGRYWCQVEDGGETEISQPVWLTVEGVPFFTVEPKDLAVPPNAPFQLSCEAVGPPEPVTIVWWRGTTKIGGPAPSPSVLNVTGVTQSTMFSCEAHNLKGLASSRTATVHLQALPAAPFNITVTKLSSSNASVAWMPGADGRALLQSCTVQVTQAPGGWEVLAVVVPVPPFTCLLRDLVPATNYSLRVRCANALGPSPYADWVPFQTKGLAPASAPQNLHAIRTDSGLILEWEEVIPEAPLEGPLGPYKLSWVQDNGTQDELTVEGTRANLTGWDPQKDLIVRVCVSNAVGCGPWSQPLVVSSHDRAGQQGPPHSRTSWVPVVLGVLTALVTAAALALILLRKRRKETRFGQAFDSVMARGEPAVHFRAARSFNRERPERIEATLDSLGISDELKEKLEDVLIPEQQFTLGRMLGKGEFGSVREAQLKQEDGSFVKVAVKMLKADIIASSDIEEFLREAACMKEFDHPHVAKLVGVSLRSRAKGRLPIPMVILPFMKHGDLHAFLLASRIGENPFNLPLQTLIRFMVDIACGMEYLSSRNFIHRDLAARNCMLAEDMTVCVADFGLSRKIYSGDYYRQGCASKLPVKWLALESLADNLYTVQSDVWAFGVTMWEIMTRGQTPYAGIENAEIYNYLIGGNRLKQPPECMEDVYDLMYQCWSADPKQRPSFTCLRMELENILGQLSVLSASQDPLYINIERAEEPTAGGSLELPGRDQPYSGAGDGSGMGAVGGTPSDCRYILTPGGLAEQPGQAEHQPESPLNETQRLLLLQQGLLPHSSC

The next assay addresses T3, PRKD1 (PKC mu) (Homo sapiens, UniProt Q15139).
T3 sequence (Q15139 1-912): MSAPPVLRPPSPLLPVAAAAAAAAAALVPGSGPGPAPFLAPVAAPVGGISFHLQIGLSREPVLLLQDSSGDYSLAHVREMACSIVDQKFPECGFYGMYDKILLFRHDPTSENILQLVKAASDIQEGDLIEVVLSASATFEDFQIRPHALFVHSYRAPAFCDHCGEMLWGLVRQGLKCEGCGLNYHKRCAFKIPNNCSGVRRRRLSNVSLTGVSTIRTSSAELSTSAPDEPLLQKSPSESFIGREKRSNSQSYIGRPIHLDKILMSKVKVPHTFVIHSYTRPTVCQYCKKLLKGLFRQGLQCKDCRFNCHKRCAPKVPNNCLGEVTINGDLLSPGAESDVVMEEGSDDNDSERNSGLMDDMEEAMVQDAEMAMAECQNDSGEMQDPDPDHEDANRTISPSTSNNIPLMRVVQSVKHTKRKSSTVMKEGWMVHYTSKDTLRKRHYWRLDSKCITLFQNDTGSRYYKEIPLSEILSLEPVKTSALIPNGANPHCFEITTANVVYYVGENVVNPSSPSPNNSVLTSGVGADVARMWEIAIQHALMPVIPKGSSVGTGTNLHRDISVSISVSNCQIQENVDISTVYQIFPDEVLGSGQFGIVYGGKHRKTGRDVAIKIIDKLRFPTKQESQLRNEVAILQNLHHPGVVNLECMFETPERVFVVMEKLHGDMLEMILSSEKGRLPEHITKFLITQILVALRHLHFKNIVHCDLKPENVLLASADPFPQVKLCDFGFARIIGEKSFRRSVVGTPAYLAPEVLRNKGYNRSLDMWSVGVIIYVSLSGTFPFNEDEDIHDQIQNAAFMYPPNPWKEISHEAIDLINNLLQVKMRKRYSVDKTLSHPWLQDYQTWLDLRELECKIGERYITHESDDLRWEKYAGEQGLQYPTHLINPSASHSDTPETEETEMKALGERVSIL

Where [1] appears, read: 1 h, 1 μM WEL028, 1 h preincubation.
Setting [2] is: 1 µM, ZLYTE, ATP Km app, listed as WEL028, 1 µM.
[3] abbreviates: read-out: Inhibition at 1 µM (%), 1 µM, ZLYTE, ATP Km app.

Sequence of PDGFRB (PDGFR beta) (P09619 33-1106): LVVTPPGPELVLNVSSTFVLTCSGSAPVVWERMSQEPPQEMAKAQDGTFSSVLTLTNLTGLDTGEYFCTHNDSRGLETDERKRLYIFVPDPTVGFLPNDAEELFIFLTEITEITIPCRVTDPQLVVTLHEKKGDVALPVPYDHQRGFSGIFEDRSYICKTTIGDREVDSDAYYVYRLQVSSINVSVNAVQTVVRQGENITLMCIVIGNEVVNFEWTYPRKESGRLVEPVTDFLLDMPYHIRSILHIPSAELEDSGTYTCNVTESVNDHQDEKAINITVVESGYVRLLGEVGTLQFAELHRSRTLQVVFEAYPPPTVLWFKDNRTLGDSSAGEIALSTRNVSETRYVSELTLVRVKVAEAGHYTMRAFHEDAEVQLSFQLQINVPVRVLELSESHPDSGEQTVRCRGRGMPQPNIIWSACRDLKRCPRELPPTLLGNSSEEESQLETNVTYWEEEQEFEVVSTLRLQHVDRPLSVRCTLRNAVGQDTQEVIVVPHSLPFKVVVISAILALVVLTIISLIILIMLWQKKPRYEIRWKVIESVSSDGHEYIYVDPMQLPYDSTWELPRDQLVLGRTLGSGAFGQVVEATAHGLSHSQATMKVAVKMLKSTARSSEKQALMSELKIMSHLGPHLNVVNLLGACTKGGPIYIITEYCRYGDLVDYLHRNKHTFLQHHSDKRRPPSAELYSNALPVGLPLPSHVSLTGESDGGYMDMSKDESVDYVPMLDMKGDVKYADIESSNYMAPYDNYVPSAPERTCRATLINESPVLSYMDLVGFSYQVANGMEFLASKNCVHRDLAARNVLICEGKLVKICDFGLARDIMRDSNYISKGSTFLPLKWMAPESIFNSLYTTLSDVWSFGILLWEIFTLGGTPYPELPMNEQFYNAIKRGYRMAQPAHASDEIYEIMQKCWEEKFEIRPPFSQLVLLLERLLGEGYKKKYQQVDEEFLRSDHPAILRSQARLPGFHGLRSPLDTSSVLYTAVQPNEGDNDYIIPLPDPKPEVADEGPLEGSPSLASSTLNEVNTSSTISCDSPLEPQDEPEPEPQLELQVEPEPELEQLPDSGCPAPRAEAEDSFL
Sequence of CAMKK1 (CAMKKA) (Q8N5S9 whole entry): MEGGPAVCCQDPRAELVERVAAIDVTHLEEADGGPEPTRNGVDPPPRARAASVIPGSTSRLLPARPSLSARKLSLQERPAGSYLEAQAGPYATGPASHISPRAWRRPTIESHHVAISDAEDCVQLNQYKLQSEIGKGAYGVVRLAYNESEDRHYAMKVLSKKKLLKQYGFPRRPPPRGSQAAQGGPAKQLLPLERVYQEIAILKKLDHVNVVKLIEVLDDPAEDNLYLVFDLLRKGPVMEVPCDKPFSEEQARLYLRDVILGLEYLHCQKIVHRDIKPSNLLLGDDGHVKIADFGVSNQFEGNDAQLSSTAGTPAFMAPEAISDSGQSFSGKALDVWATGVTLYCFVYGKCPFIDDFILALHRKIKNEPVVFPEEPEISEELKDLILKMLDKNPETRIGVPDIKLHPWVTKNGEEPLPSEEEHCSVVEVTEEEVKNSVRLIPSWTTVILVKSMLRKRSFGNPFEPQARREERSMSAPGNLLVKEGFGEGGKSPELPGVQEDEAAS
Sequence of TEK (Tie2) (Q02763 23-1124): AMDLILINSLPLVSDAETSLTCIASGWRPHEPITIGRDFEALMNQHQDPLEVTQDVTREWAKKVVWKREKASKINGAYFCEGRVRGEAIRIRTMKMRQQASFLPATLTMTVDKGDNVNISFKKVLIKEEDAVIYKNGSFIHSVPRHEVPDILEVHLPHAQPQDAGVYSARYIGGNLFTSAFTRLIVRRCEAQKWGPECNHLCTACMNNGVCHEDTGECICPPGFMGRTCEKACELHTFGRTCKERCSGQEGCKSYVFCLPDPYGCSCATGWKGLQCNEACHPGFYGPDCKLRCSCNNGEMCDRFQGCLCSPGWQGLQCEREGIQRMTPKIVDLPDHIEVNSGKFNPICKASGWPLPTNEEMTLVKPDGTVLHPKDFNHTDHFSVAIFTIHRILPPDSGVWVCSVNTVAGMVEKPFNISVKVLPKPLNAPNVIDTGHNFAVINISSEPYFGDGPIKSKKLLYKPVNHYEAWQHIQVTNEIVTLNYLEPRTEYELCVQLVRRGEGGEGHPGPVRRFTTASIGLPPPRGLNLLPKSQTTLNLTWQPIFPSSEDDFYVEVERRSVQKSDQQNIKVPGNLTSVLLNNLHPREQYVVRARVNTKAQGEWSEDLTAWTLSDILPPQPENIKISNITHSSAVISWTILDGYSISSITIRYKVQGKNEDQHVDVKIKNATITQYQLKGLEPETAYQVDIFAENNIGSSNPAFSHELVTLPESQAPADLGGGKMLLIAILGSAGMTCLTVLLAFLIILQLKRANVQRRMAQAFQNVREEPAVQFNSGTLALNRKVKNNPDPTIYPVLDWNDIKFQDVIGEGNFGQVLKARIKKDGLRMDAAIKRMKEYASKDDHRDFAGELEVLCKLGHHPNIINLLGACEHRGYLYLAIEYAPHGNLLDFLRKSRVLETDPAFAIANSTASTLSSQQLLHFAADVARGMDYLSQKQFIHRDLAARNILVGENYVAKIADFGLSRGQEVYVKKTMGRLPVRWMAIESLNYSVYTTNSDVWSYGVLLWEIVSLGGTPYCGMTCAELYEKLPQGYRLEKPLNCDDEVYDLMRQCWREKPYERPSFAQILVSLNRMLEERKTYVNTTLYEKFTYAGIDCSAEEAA
Sequence of GSK3A (GSK3 alpha) (P49840 whole entry): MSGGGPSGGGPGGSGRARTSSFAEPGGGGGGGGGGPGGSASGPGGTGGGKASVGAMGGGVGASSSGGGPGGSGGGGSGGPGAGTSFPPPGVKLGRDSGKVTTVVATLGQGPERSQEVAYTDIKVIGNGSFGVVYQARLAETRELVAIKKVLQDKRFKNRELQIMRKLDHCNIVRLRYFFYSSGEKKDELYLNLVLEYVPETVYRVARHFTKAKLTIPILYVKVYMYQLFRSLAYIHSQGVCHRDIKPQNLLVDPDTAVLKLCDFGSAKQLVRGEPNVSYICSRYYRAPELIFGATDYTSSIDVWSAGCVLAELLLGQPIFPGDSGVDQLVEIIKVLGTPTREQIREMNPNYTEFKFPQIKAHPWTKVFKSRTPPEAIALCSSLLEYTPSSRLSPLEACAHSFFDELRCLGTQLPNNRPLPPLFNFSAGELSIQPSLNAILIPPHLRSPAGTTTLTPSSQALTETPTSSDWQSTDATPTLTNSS
Sequence of SRPK1 (Q96SB4 whole entry): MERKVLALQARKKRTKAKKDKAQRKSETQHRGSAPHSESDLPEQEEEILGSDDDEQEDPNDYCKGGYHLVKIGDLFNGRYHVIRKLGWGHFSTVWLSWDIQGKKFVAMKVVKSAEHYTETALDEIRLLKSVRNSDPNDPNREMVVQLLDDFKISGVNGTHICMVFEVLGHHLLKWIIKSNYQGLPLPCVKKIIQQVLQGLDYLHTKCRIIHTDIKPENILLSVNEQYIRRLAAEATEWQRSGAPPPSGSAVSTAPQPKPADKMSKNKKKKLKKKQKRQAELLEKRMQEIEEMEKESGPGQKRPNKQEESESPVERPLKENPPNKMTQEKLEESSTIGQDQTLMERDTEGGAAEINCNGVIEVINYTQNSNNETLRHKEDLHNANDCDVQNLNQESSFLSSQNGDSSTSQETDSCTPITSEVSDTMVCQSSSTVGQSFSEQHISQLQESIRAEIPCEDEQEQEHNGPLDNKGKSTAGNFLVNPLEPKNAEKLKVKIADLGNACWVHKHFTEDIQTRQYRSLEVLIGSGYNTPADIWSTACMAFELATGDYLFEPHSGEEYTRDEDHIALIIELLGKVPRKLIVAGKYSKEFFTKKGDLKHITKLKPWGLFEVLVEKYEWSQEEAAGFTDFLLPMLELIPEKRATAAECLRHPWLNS
Description for CAMKK1 (CAMKKA): (§1) Selectivity profiling assays were performed by the Invitrogen SelectScreen™ Services. […] The concentration of ATP was selected to be equal to the KM, unless indicated otherwise.
Description for GSK3A (GSK3 alpha): as §1
Description for IGF1R: as §1
Description for PDGFRB (PDGFR beta): as §1
Description for PRKD1 (PKC mu): as §1
Description for SRPK1: as §1
Description for TEK (Tie2): as §1
Description for TGFBR1 (ALK5): as §1
Description for TYRO3 (RSE): as §1

For the compound `C#CCOc1ccc(Nc2ncc(Cl)c(Nc3ccccc3NC(=O)C=C)n2)c(OC)c1` [Compound 6], the “Inhibition at 1 µM (%)” value is 3% at TGFBR1 (ALK5); 8% on TGFBR1 (ALK5) (listed as WEL028, 1 µM); 24% at CAMKK1 (CAMKKA) (CAMKK1 (CAMKKA), 1 µM, LanthaScreen Binding, listed as WEL028, 1 µM); 7% on GSK3A (GSK3 alpha) (GSK3A (GSK3 alpha), 1 µM, ZLYTE, ATP Km app, listed as WEL028, 1 µM); 6% on TYRO3 (RSE) (setting [2]); 2% and 11% at SRPK1 (setting [2]). The “Inhibition at 1 µM (%)” value was 4% and 10% at TEK (Tie2) (setting [2]); 9% at PRKD1 (PKC mu) (setting [2]); 23% on PDGFRB (PDGFR beta) (PDGFRB (PDGFR beta), 1 µM, ZLYTE, ATP Km app, listed as WEL028, 1 µM). The inhibition at 1 µM against TGFBR1 (ALK5) (setting [1]) came to 6%; on CAMKK1 (CAMKKA) (setting [1]) it was 22%; on CAMKK1 (CAMKKA) (read-out: Inhibition at 1 µM (%), CAMKK1 (CAMKKA), 1 µM, LanthaScreen Binding), 20%; against GSK3A (GSK3 alpha) (setting [1]), 6%; on GSK3A (GSK3 alpha) (read-out: Inhibition at 1 µM (%), GSK3A (GSK3 alpha), 1 µM, ZLYTE, ATP Km app), 5%; against TYRO3 (RSE) (setting [1]) it was 5%. The inhibition at 1 µM at TYRO3 (RSE) (setting [3]) turned out to be 4%; on SRPK1 (setting [1]), 7%; on TEK (Tie2) (setting [1]) it was 7%; against IGF1R (setting [1]), 15%; at IGF1R (read-out: Inhibition at 1 µM (%), IGF1R, 1 µM, ZLYTE, ATP Km app) it was 14%; against PRKD1 (PKC mu) (setting [1]), 11%. Besides, the inhibition at 1 µM is 12% at PRKD1 (PKC mu) (setting [3]); 22% on PDGFRB (PDGFR beta) (setting [1]); 21% on PDGFRB (PDGFR beta) (read-out: Inhibition at 1 µM (%), PDGFRB (PDGFR beta), 1 µM, ZLYTE, ATP Km app).
